Measured values from patent US20210106567A1, “COMPOSITIONS AND METHODS FOR INHIBITING CARP-1 BINDING TO NEMO” (United States Government As Represented By The Department …, priority 2019, published 2021).

Tests used:
[1] = tested on: p65/RelA activation and phosphorylation of NEMO; experiment: Western blot for canonical NF-κB activation; format: cell-based; details: single agent, Western blot
Description: The cells were lysed to prepare protein extracts.

[2] = tested on: parental and chemo-resistant human and murine TNBC cells and parental renal cancer cells; experiment: Cytokine ELISA of culture media, chemotherapy-induced secretion; format: cell-based; details: single agent
4T1 TNBC tumors = experiment: 4T1 TNBC syngeneic tumor efficacy study in Balb/c mice; format: in vivo, mouse
Experimental: Establishment of TNBC cell-derived xenografts in Syngeneic mice: Generation of 4T1 TNBC cell-derived sub-cutaneous xenografts in Balb/c mice were performed (Cheriyan et al. (2016) Oncotarget 7, 73370-73388; and Cheriyan et al. (2017) Oncotarget 8, 104928-104945). BALB/cAnNCr, 6-8-weeks old, female mice were purchased from Charles River Laboratories (Horsham, Pa.). Following suitable acclimation of animals, 1×10^6 4T1 TNBC cells were re-suspended in 200 μl of sterile saline, and implanted in the flanks using a 27-gauge needle. Tumors were allowed to grow to 500-1000 mg (˜10 days), and the aseptically harvested, minced into 3-4 mm^3 (30 mg) fragments and transplanted SC into naïve recipient mice using a standard 12 gauge trocar to serially maintain the tumor in vivo. For efficacy studies, tumors serially maintained in vivo were aseptically harvested and minced into 3-4 mm^3 (30 mg) fragments, then bilaterally transplanted subcutaneously along the flanks using a standard 12 gauge trocar. […] For the efficacy studies, SNI-1 was formulated in 8% DMSO (v/v) and 8% Cremophor (v/v) in cell grade water, pH4 as diluent.
Clinical grade ADR stock (2 mg/mL) was diluted to the appropriate concentration with cell grade water; pH4 and clinical grade CIS (1 mg/ml) diluted with USP 0.9% saline; pH6). Mice were monitored daily for changes in condition and body weight. Tumors were measured three times weekly by caliper and tumor volume (mg) was calculated using the following formula: (A×B2)/2 where A and B are the tumor length and width (in mm), respectively. […] Efficacy was also assessed quantitatively using tumor growth delay (T−C) defined as the difference between the median time (in days) required for the treatment group tumors (T) to reach 1000 mg and the median time (days) for the control group tumors to reach the same volume. Post last treatment, tumor tissue and samples from various organs (spleen, liver, kidney, heart, bone, and lungs) were collected. Additionally, the whole blood samples were obtained from a representative tumor-bearing mouse from each group via terminal cardiac puncture. Immuno-histochemical analyses of the tumor and tissue samples were performed for expression of activated RelA (serine 536 phosphorylated p65), total RelA, cleaved caspase-3, and CARP-1 proteins. The levels of pro-inflammatory cytokines in the sera were analyzed by sandwich ELISA assays following methods detailed herein (Cheriyan et al. (2016) Oncotarget 7, 73370-73388; and Cheriyan et al. (2017) Oncotarget 8, 104928-104945).

MDR1 = experiment: Levels of drug efflux pump MDR1; format: cell-based, human; details: MDA-MB-468 cells
Description: Of note is that SNI-1 in combination with Adriamycin provoked a greater inhibition of tumor growth when compared with the tumor growth inhibition noted in animals treated with either agent alone. […] Since TNBCs and many other cancers are often known to express drug efflux pumps that contribute to lower efficacy of drugs in clinic and development of drug-resistant tumors, it is likely that the presence/expression of these drug efflux pumps function in part to interfere with a robust anti-tumor response to a combination of SNI-1 and Adriamycin.

[3] = tested on: RENCA renal cancer tumors; experiment: RENCA cell-derived syngeneic kidney cancer tumor model; details: throughout the experiment
Experimental: The subcutaneous tumor bearing mice were treated with indicated agents. […] The end-points for assessing anti-tumor activity involved qualitative determination via tumor growth inhibition (% T/C) where T is the median tumor volume of the treated mice and C is the median tumor volume of the Control mice on any given day of measurement.

Structure (SMILES): N.N.[Cl][Pt][Cl] [Cisplatin]
- p65/RelA activation and phosphorylation of NEMO [1]: robust increase
- levels of TNFα, IL-8, and IL-1β in the media [2]: robust increase
- serum levels of TNFα and IL-1β (4T1 TNBC tumors; ELISA of sera): robustly stimulated
- phosphorylated p65/RelA in tumors (immuno-histochemistry) (4T1 TNBC tumors; mouse, in vivo): presence of phosphorylated p/65RelA
- cleaved caspase-3 in tumors (immuno-histochemistry) (4T1 TNBC tumors; versus untreated control animal): strong presence of cleaved caspase-3
- levels of drug efflux pump MDR1 (MDR1): robust increase
- weight loss in animals [3]: 0.8-3.2%
